Tested on: M. tuberculosis clinical isolates
Test: MIC against clinical strains (BACTEC MGIT 960 System)
Format: cell-based
Settings: Mycobacterium tuberculosis
[1] = strain 123, resistant clinical isolate, resistance HSERZKTACp
[2] = strain 139, resistant clinical isolate, resistance HSERZKTACp
[3] = strain 141, resistant clinical isolate, resistance HRT
[4] = strain 167, resistant clinical isolate, resistance HSRZ
[5] = strain 175, resistant clinical isolate, resistance S
[6] = strain 198, resistant clinical isolate, resistance H
[7] = strain 242, resistant clinical isolate, resistance H
[8] = strain 330, resistant clinical isolate, resistance HSR (Tables 2B, 2D)
[9] = strain 1672, resistant clinical isolate, resistance HSRZ
[10] = strain 1819, resistant clinical isolate, resistance HSRZ

SMILES	MIC [1] [µM]	MIC [2] [µM]	MIC [3] [µM]	MIC [4] [µM]	MIC [5] [µM]	MIC [6] [µM]	MIC [7] [µM]	MIC [8] [µM]	MIC [9] [µM]	MIC [10] [µM]	further results
Cl.NC[C@H]1OB2OCCOc3ccc(Br)c1c32 [Example 2, (S)-(3-bromo-7,8-dihydro-2H-1,6,9-trioxa-9a-borabenzo[cd]azulen-2-yl)methanamine hydrochloride]	0.08	0.08	0.08	0.08	0.08	0.08	0.08	0.08	0.08	0.04	
Cl.NC[C@H]1OB2OCCOc3ccc(Cl)c1c32 [Example 4, (S)-(3-chloro-7,8-dihydro-2H-1,6,9-trioxa-9a-borabenzo[cd]azulen-2-yl)methanamine hydrochloride]	0.16	0.08	0.08	0.08	0.08	0.08	0.08	0.08	0.08	≤ 0.02	MIC (strain 106, resistant clinical isolate, resistance HR): 0.16 µM; MIC (strain 192, resistant clinical isolate, resistance HS): 0.31 µM; MIC (strain 201, resistant clinical isolate, resistance HRE): 0.08 µM; MIC (strain 202, resistant clinical isolate, resistance S): 0.08 µM; MIC (strain 254, resistant clinical isolate, resistance H): 0.16 µM; MIC (strain 277, resistant clinical isolate, resistance H): 0.08 µM; MIC (strain 297, resistant clinical isolate, resistance HSR): 0.16 µM; MIC (strain 330, resistant clinical isolate, resistance HS): 0.08 µM; MIC (strain 330, resistant clinical isolate, resistance RSR): 0.04 µM; MIC (strain 409, resistant clinical isolate, resistance HR): 0.08 µM; MIC (strain 415, resistant clinical isolate, resistance HRT): 0.08 µM; MIC (strain 514, resistant clinical isolate, resistance HSRT): 0.08 µM; MIC (strain 562, resistant clinical isolate, resistance HSERZKTA): 0.08 µM; MIC (strain 605, resistant clinical isolate, resistance HSERZACp): 0.16 µM; MIC (strain 670, resistant clinical isolate, resistance HRZ): 0.04 µM; MIC (strain 709, resistant clinical isolate, resistance S): 0.08 µM; MIC (strain 732, resistant clinical isolate, resistance S): 0.08 µM; MIC (strain CR, resistant clinical isolate, resistance HSERZ): 0.31 µM
NC[C@H]1OB2OCCOc3ccc(Cl)c1c32 [Example G4-Cl]											MIC (for more than 85 clinical isolate strains of 97 tested (sensitive and resistant)): < 1 µM

From patent publication US10526352B2, “Tricyclic benzoxaborole compounds and uses thereof” (GlaxoSmithKline Intellectual Property (No.2) Limited, priority 2013, dated 2020)
